Tests used:
Format in all cases: biochemical
human cathepsin L = biological target: T1, human cathepsin L (Homo sapiens, UniProt P07711); assay: Cathepsin L peptidase activity assay (Ki); details: read-out: Ki, inhibitors of cathepsin L
T1 construct: purchased CN Biosciences
How it was run: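 Run at 25±1° C with DMSO under 1%: buffer was 10 mM BTP pH 6.5 containing 1 mM EDTA, 1 mM CaCl2 and 5 mM 2-mercaptoethanol. Enzyme (1 nM cathepsin L) was added last to start hydrolysis of Ac-Phe-Arg-AMC held at KM^app (~20 μM), followed kinetically by fluorescence at 365/450 nm.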

CPB2.8ΔCTE = biological target: T2, CPB2.8ΔCTE (Leishmania mexicana, UniProt P36400); assay: Leishmania mexicana cysteine protease B (CPB) peptidase activity assay (Ki); details: Ki, inhibitors of Leismania mexicana CPB protease
T2 construct: Wild-type recombinant CPB without the C-terminal extention (i.e. CPB2.8ΔCTE); Dr. Jeremy Mottram (Wellcome Centre for Molecular Parasitology, University of Glasgow)
How it was run: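 Apparent Ki was derived by regression of activity against inhibitor concentration, assuming pure-competitive reversible binding. Reaction: 0.25 nM CPB lacking the C-terminal extension, pH 5.5 acetate buffer (1 mM EDTA, 200 mM NaCl, 10 mM DTT), 25 °C, followed by continuous substrate fluorescence.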

Wild-type cruzipain = Wild-type cruzipain (Trypanosoma cruzi, UniProt P25779); assay: Trypanosoma cruzi cruzipain peptidase activity assay (Ki); details: read-out: Ki, inhibitors of cruzain and cruzipains
How it was run: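 Native cruzipain from T. cruzi Dm28 epimastigotes, 2.5 nM, in 100 mM sodium phosphate pH 6.75 with 1 mM EDTA and 10 mM L-cysteine, 25 °C, DMSO <1%. Rates taken from continuous fluorogenic substrate read; Ki by regression assuming reversible pure-competitive inhibition.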

Bovine cathepsin S = biological target: T3, Bovine cathepsin S (Bos taurus, UniProt P25326); assay: Cathepsin S peptidase activity assay, bovine enzyme (Ki); details: species of cathepsin S not given; read-out: Ki, inhibitors of cathepsin S
T3 construct: purchased CN Biosciences
Description: Unless otherwise stated, all general chemicals and biochemicals were purchased from either the Sigma Chemical Company, Poole, Dorset, U.K or from Fisher Scientific UK, Loughborough, Leicestershire, U.K. Absorbance assays were carried out in flat-bottomed 96-well plates (Spectra; Greiner Bio-One Ltd., Stonehouse, Gloucestershire, U.K.) using a SpectraMax PLUS384 plate reader (Molecular Devices, Crawley, U.K.). Fluorescence high throughput assays were carried out in either 384-well microtitre plates (Corning Costar 3705 plates, Fisher Scientific) or 96-well ‘U’ bottomed Microfluor W1 microtitre plates (Thermo Labsystems, Ashford, Middlesex, U.K.). Fluorescence assays were monitored using a SpectraMax Gemini fluorescence plate reader (Molecular Devices). For substrates employing either a 7-amino-4-methylcoumarin (AMC) or a 7-amino-4-trifluoromethylcoumarin (AFC) fluorophore, assays were monitored at an excitation wavelength of 365 nm and an emission wavelength of 450 nm and the fluorescence plate reader calibrated with AMC. For substrates employing a 3-amino-benzoyl (Abz) fluorophore, assays were monitored at an excitation wavelength of 310 nm and an emission wavelength of 445 nm; the fluorescence plate reader calibrated with 3-amino-benzamide (Fluka). Unless otherwise indicated, all the peptidase substrates were purchased from Bachem UK, St Helens, Merseyside, UK. Substrates utilizing fluorescence resonance energy transfer methodology (i.e. FRET-based substrates) were synthesized at Incenta Limited using published methods (Atherton & Sheppard, Solid Phase Peptide Synthesis, IRL Press, Oxford, U.K, 1989) and employed Abz (2-aminobenzoyl) as the fluorescence donor and 3-nitro-tyrosine [Tyr(NO2)] as the fluorescence quencher (Meldal, M. and Breddam, K., Anal. Biochem, 195, 141-147, 1991). Hydroxyethylpiperazine ethanesulfonate (HEPES), tris-hydroxylmethyl aminomethane (tris) base, bis-tris-propane and all the biological detergents (e.g. CHAPS, zwittergents, etc.) were purchased from CN Biosciences UK, Beeston, Nottinghamshire, U.K. Glycerol was purchased from Amersham Pharmacia Biotech, Little Chalfont, Buckinghamshire, U.K. Stock solutions of substrate or inhibitor were made up to 10 mM in 100% dimethylsulfoxide (DMSO) (Rathburns, Glasgow, U.K.) and diluted as appropriately required. In all cases the DMSO concentration in the assays was maintained at less than 1% (vol./vol.).
Assay protocols were based on literature precedent (Table 4; Barrett, A. J., Rawlings, N. D. and Woessner, J. F., 1998, Handbook of Proteolytic Enzymes, Academic Press, London and references therein) and modified as required to suit local assay protocols. Enzyme was added as required to initiate the reaction and the activity, as judged by the change in fluorescence upon conversion of substrate to product, was monitored over time. All assays were carried out at 25±1° C.
Bovine cathepsin S, human cathepsin L, human cathepsin H and human cathepsin B were obtained from CN Biosciences. Recombinant human cathepsin S, human cathepsin K and human cathepsin X were obtained from Dr. Boris Turk (Josef Stefan Institute, Ljubljana, Slovenia). Unless otherwise stated, all peptidase activity assays were carried out in 10 mM bis-tris-propane (BTP), pH 6.5 containing 1 mM EDTA, 5 mM 2-mercaptoethanol and 1 mM CaCl2. Human cathepsin H activity assays were carried out in 10 mM BTP pH 6.5, 142 mM NaCl2, 1 mM CaCl2, 1 mM EDTA, 1 mM DTT, 0.035 mM Zwittergent 3-16. Human cathepsin K assays were carried out in 100 mM sodium acetate; pH 5.5 containing 20 mM L-cysteine and 1 mM EDTA (Bossard, M. J., et. al., J. Biol. Chem., 21, 12517-12524, 1996). Human cathepsin X assays were carried out in 100 mM sodium acetate; pH 5.5 containing 20 mM L-cysteine; 0.05% (w/v) Brij 35 and 1 mM EDTA (Santamaria, I., et. al., J. Biol. Chem., 273, 16816-16823, 1998; Klemencic, J, et al., Eur. J. Biochem., 267, 5404-5412, 2000).

Measured: Ki

Sequence of Wild-type cruzipain (P25779 whole entry): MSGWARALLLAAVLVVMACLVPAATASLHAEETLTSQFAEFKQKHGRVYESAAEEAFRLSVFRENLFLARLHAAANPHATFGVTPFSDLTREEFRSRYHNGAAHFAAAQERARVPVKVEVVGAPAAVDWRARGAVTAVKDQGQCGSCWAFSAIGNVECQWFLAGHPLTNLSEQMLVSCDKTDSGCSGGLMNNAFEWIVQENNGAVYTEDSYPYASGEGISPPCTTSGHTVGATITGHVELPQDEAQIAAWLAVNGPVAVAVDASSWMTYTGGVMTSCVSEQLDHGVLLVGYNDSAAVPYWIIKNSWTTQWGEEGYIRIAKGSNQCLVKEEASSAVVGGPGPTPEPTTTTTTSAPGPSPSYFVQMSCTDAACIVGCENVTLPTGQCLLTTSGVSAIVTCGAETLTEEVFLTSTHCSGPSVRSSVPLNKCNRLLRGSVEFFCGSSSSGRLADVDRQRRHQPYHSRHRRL
T1 sequence (P07711 114-333): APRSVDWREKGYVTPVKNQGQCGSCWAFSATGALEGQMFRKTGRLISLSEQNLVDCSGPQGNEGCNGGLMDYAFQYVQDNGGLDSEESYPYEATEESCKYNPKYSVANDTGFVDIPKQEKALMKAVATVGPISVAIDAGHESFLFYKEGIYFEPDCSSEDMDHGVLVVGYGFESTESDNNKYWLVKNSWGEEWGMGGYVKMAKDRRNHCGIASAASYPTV
T3 sequence (P25326 115-331): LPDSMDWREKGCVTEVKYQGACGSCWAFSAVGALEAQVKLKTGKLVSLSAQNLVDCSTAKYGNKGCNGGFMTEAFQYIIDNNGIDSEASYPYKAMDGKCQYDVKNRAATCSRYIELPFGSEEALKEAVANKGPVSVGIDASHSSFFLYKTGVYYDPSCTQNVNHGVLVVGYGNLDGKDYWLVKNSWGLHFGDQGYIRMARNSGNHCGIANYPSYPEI
T2 sequence (P36400 126-343, stated change not applied): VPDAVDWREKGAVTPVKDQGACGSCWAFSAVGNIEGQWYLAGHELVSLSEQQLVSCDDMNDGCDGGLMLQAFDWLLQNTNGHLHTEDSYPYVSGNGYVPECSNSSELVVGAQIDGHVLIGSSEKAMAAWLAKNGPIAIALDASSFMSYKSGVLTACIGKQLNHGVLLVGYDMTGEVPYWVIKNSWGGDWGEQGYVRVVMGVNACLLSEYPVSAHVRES

CC(C)C[C@H](NC(=O)c1ccc(N(C)C)cc1)C(=O)N1CC[C@@H]2[C@H]1C(=O)CN2C(=O)[C@H](C)NC(=O)OCc1ccccc1 [Example 145, (3aS,6aR)-((1S)-2-{4-[(2S)-2-(4-Dimethylamino-benzoylamino)-4-methyl-pentanoyl]-3-oxo-hexahydro-pyrrolo[3,2-b]pyrrole-1-yl}-1-methyl-2-oxo-ethyl)-carbamic acid benzyl ester]
< 5 µM: all assays above

CC(C)C[C@H](NC(=O)OCc1ccccc1)C(=O)N1CC(=O)[C@@H]2[C@H]1CCN2C(=O)[C@H](CC(C)C)NC(=O)c1ccc(N(C)C)cc1 [Example 37, (3aS,6aR)-((1S)-1-{4-[(2S)-2-(4-Dimethylamino-benzoylamino)-4-methyl-pentanoyl]-3-oxo-hexahydro-pyrrolo[3,2-b]pyrrole-1-carbonyl}-3-methyl-butyl)-carbamic acid benzyl ester]
< 5 µM: all assays above

CC(C)C[C@H](NC(=O)c1ccc2ncccc2c1)C(=O)N1CC[C@@H]2[C@H]1C(=O)CN2C(=O)c1ccccc1 [Example 86, (3aR,6aS)-Quinoline-6-carboxylic acid [(1S)-1-(4-benzoyl-6-oxo-hexahydro-pyrrolo[3,2-b]pyrrole-1-carbonyl)-3-methyl-butyl]-amide]
< 5 µM: all assays above

Cc1c(C(=O)N[C@@H](CC(C)C)C(=O)N2CC[C@@H]3[C@H]2C(=O)CN3C(=O)c2cccnc2)oc2ccccc12 [Example 17, (3aR,6aS)-3-Methyl-benzofuran-2-carboxylic acid {(1S)-3-methyl-1-[6-oxo-4-(pyridine-3-carbonyl)-hexahydro-pyrrolo[3,2-b]pyrrole-1-carbonyl]-butyl}-amide]
< 5 µM: all assays above

CC(C)C[C@H](NC(=O)c1ccc2[nH]ccc2c1)C(=O)N1CC[C@@H]2[C@H]1C(=O)CN2C(=O)c1ccccc1 [Example 89, (3aR,6aS)-1H-Indole-5-carboxylic acid [(1S)-1-(4-benzoyl-6-oxo-hexahydro-pyrrolo[3,2-b]pyrrole-1-carbonyl)-3-methyl-butyl]-amide]
< 5 µM: all assays above

CC(C)C[C@H](NC(=O)c1cccc(CN)c1)C(=O)N1CC[C@@H]2[C@H]1C(=O)CN2C(=O)c1ccccc1S(C)(=O)=O [Example 185, (3aR,6aS)-3-Aminomethyl-N-{(1S)-1-[4-(2-methanesulfonyl-benzoyl)-6-oxo-hexahydro-pyrrolo[3,2-b]pyrrole-1-carbonyl]-3-methyl-butyl}-benzamide]
< 5 µM: all assays above

CC(C)C[C@H](NC(=O)c1ccc(N2CCCC2)cc1)C(=O)N1CC[C@@H]2[C@H]1C(=O)CN2C(=O)c1ccccc1 [Example 193, (3aR,6aS)-N-[(1S)-1-(4-Benzoyl-6-oxo-hexahydro-pyrrolo[3,2-b]pyrrole-1-carbonyl)-3-methyl-butyl]-4-pyrrolidin-1-yl-benzamide]
< 5 µM: all assays above

CC(C)C[C@H](NC(=O)c1cc2ccccc2o1)C(=O)N1CC[C@@H]2[C@H]1C(=O)CN2C(=O)c1cccnc1 [Example 16, (3aR,6aS)-Benzofuran-2-carboxylic acid {(1S)-3-methyl-1-[6-oxo-4-(pyridine-3-carbonyl)-hexahydro-pyrrolo[3,2-b]pyrrole-1-carbonyl]-butyl}-amide]
< 5 µM: all assays above

CCc1ccc(C(=O)N[C@@H](CC(C)C)C(=O)N2CC[C@@H]3[C@H]2C(=O)CN3C(=O)c2ccccc2)cc1 [Example 171, (3aR,6aS)-N-[(1S)-1-(4-Benzoyl-6-oxo-hexahydro-pyrrolo[3,2-b]pyrrole-1-carbonyl)-3-methyl-butyl]-4-ethyl-benzamide]
< 5 µM: all assays above

CC(C)C[C@H](NC(=O)c1ccc(N(C)C)cc1)C(=O)N1CC[C@@H]2[C@H]1C(=O)CN2C(=O)c1ccc2[nH]ccc2c1 [Example 98, (3aR,6aS)-4-Dimethylamino-N-{(1S)-1-[4-(1H-indole-5-carbonyl)-6-oxo-hexahydro-pyrrolo[3,2-b]pyrrole-1-carbonyl]-3-methyl-butyl}-benzamide]
< 5 µM: all assays above

CC(C)C[C@H](NC(=O)c1ccccc1)C(=O)N1CC[C@@H]2[C@H]1C(=O)CN2C(=O)c1ccccc1 [Example 174, (3aR,6aS)-N-[(1S)-1-(4-Benzoyl-6-oxo-hexahydro-pyrrolo[3,2-b]pyrrole-1-carbonyl)-3-methyl-butyl]-benzamide]
< 5 µM: all assays above

CC[C@H](NC(=O)OCc1ccccc1)C(=O)N1CC(=O)[C@@H]2[C@H]1CCN2C(=O)[C@H](CC(C)C)NC(=O)c1ccc(N(C)C)cc1 [Example 159, (3aS,6aR)-((1S)-1-{4-[(2S)-2-(4-Dimethylamino-benzoylamino)-4-methyl-pentanoyl]-3-oxo-hexahydro-pyrrolo[3,2-b]pyrrole-1-carbonyl}-propyl)-carbamic acid benzyl ester]
< 5 µM: all assays above

CC(C)C[C@H](NC(=O)c1cccc(CN)c1)C(=O)N1CC[C@@H]2[C@H]1C(=O)CN2C(=O)c1ccccc1 [Example 92, (3aR,6aS)-3-Aminomethyl-N-[(1S)-1-(4-benzoyl-6-oxo-hexahydro-pyrrolo[3,2-b]pyrrole-1-carbonyl)-3-methyl-butyl]-benzamide]
< 5 µM: all assays above
